Measurements from PubChem BioAssay (NCI).
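1) Cells in 96-well plates. 2) Compound, 48 h, 5 concentrations. 3) Linear interpolation between surrounding doses. 4) Unreached endpoint = highest concentration. The concentration for full growth arrest is given as TGI.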

Key:
Test in all cases: growth of human tumour cells (NCI), 48 h
SK-MEL-28 melanoma = tested on: SK-MEL-28 melanoma
HOP-62 NSCLC = tested on: HOP-62 NSCLC
UACC-257 melanoma = tested on: UACC-257 melanoma
SNB-75 CNS = tested on: SNB-75 CNS
TK-10 renal = tested on: TK-10 renal
SF-539 CNS = tested on: SF-539 CNS
NCI/ADR-RES ovarian = tested on: NCI/ADR-RES ovarian
NCI-H460 lung = tested on: NCI-H460 lung
SNB-19 CNS = tested on: SNB-19 CNS
HCT-15 colon = tested on: HCT-15 colon
ACHN renal = tested on: ACHN renal
NCI-H522 lung = tested on: NCI-H522 lung
IGROV1 ovarian = tested on: IGROV1 ovarian
HCT-116 colon = tested on: HCT-116 colon
HCC-2998 colon = tested on: HCC-2998 colon
UO-31 renal = tested on: UO-31 renal
HS 578T breast = tested on: HS 578T breast
MCF7 breast = tested on: MCF7 breast
NCI-H23 lung = tested on: NCI-H23 lung
OVCAR-3 ovarian = tested on: OVCAR-3 ovarian
T-47D breast = tested on: T-47D breast
EKVX NSCLC = tested on: EKVX NSCLC
PC-3 prostate = tested on: PC-3 prostate
LOX IMVI melanoma = tested on: LOX IMVI melanoma
HOP-92 NSCLC = tested on: HOP-92 NSCLC
SK-MEL-2 melanoma = tested on: SK-MEL-2 melanoma
MALME-3M melanoma = tested on: MALME-3M melanoma
MOLT-4 leukemia = tested on: MOLT-4 leukemia
MDA-MB-435 = tested on: MDA-MB-435
RXF 393 renal = tested on: RXF 393 renal
NCI-H226 lung = tested on: NCI-H226 lung
OVCAR-5 ovarian = tested on: OVCAR-5 ovarian
RPMI-8226 leukemia = tested on: RPMI-8226 leukemia
HT29 colon = tested on: HT29 colon
SK-MEL-5 melanoma = tested on: SK-MEL-5 melanoma
COLO 205 colon = tested on: COLO 205 colon
MDA-N = tested on: MDA-N
U251 CNS = tested on: U251 CNS
DU-145 prostate = tested on: DU-145 prostate
BT-549 breast = tested on: BT-549 breast
MDA-MB-231 breast = tested on: MDA-MB-231 breast
SF-268 CNS = tested on: SF-268 CNS
KM12 colon = tested on: KM12 colon
OVCAR-4 ovarian = tested on: OVCAR-4 ovarian
HL-60(TB) leukemia = tested on: HL-60(TB) leukemia
SK-OV-3 ovarian = tested on: SK-OV-3 ovarian
SN12C renal = tested on: SN12C renal
UACC-62 melanoma = tested on: UACC-62 melanoma
A498 renal = tested on: A498 renal
M14 melanoma = tested on: M14 melanoma
K-562 leukemia = tested on: K-562 leukemia
SF-295 CNS = tested on: SF-295 CNS
SW-620 colon = tested on: SW-620 colon
OVCAR-8 ovarian = tested on: OVCAR-8 ovarian
CCRF-CEM leukemia = tested on: CCRF-CEM leukemia
A549 NSCLC = tested on: A549 NSCLC
786-0 renal = tested on: 786-0 renal
CAKI-1 renal = tested on: CAKI-1 renal
SR leukemia = tested on: SR leukemia

C(=N\NC1=NCCCN1)/c1ccc2ccccc2c1
TGI (SK-MEL-28 melanoma): 31.9 µM
TGI (HOP-62 NSCLC): 26.5 µM
TGI (UACC-257 melanoma): 42.5 µM
TGI (SNB-75 CNS): 18.4 µM
TGI (TK-10 renal): 36.8 µM
TGI (SF-539 CNS): 31.1 µM
TGI (NCI/ADR-RES ovarian): 76.1 µM
TGI (NCI-H460 lung): 17.4 µM
TGI (SNB-19 CNS): 31.8 µM
TGI (HCT-15 colon): 29.1 µM
TGI (ACHN renal): 22.2 µM
TGI (NCI-H522 lung): 32.4 µM
TGI (IGROV1 ovarian): 32.1 µM
TGI (HCT-116 colon): 22.4 µM
TGI (HCC-2998 colon): 10.5 µM
TGI (UO-31 renal): 23.8 µM
TGI (HS 578T breast): 41.3 µM
TGI (MCF7 breast): 15.8 µM
TGI (NCI-H23 lung): 36.6 µM
TGI (OVCAR-3 ovarian): 32.2 µM
TGI (T-47D breast): 33 µM
TGI (EKVX NSCLC): 32.8 µM
TGI (PC-3 prostate): 25.5 µM
TGI (LOX IMVI melanoma): 21 µM
TGI (HOP-92 NSCLC): 25.1 µM
TGI (SK-MEL-2 melanoma): 28.2 µM
TGI (MALME-3M melanoma): 33.2 µM
TGI (MOLT-4 leukemia): 5.02 µM
TGI (MDA-MB-435): 18.7 µM
TGI (RXF 393 renal): 30.3 µM
TGI (NCI-H226 lung): 27.1 µM
TGI (OVCAR-5 ovarian): 21.8 µM
TGI (RPMI-8226 leukemia): 28.3 µM
TGI (HT29 colon): 23 µM
TGI (SK-MEL-5 melanoma): 10.3 µM
TGI (COLO 205 colon): 19.3 µM
TGI (MDA-N): 22.5 µM
TGI (U251 CNS): 19.8 µM
TGI (DU-145 prostate): 24.2 µM
TGI (BT-549 breast): 32.5 µM
TGI (MDA-MB-231 breast): 20 µM
TGI (SF-268 CNS): 30.2 µM
TGI (KM12 colon): 28 µM
TGI (OVCAR-4 ovarian): 39.3 µM
TGI (HL-60(TB) leukemia): 21 µM
TGI (SK-OV-3 ovarian): 23.6 µM
TGI (SN12C renal): 26.6 µM
TGI (UACC-62 melanoma): 30 µM
TGI (A498 renal): 20.8 µM
TGI (M14 melanoma): 22.1 µM
TGI (K-562 leukemia): 12.6 µM
TGI (SF-295 CNS): 24.7 µM
TGI (SW-620 colon): 28.4 µM
TGI (OVCAR-8 ovarian): 29.3 µM
TGI (CCRF-CEM leukemia): 43.8 µM
TGI (A549 NSCLC): 22.4 µM
TGI (786-0 renal): 24.2 µM

c1ccc2sc(SCSc3nc4ccccc4s3)nc2c1
TGI (SK-MEL-28 melanoma): > 100 µM
TGI (HOP-62 NSCLC): > 100 µM
TGI (UACC-257 melanoma): > 100 µM
TGI (SNB-75 CNS): > 100 µM
TGI (TK-10 renal): > 100 µM
TGI (NCI/ADR-RES ovarian): > 100 µM
TGI (NCI-H460 lung): > 100 µM
TGI (SNB-19 CNS): > 100 µM
TGI (HCT-15 colon): > 100 µM
TGI (ACHN renal): > 100 µM
TGI (NCI-H522 lung): > 100 µM
TGI (IGROV1 ovarian): > 100 µM
TGI (HCT-116 colon): > 100 µM
TGI (HCC-2998 colon): > 100 µM
TGI (UO-31 renal): > 100 µM
TGI (HS 578T breast): > 100 µM
TGI (NCI-H23 lung): > 100 µM
TGI (OVCAR-3 ovarian): > 100 µM
TGI (T-47D breast): > 100 µM
TGI (EKVX NSCLC): > 100 µM
TGI (PC-3 prostate): > 100 µM
TGI (LOX IMVI melanoma): > 100 µM
TGI (HOP-92 NSCLC): > 100 µM
TGI (SK-MEL-2 melanoma): > 100 µM
TGI (MALME-3M melanoma): > 100 µM
TGI (MOLT-4 leukemia): > 100 µM
TGI (CAKI-1 renal): > 100 µM
TGI (MDA-MB-435): > 100 µM
TGI (RXF 393 renal): > 100 µM
TGI (NCI-H226 lung): > 100 µM
TGI (OVCAR-5 ovarian): > 100 µM
TGI (RPMI-8226 leukemia): > 100 µM
TGI (HT29 colon): > 100 µM
TGI (SK-MEL-5 melanoma): > 100 µM
TGI (MDA-N): > 100 µM
TGI (U251 CNS): > 100 µM
TGI (DU-145 prostate): > 100 µM
TGI (BT-549 breast): > 100 µM
TGI (MDA-MB-231 breast): > 100 µM
TGI (SF-268 CNS): > 100 µM
TGI (KM12 colon): > 100 µM
TGI (OVCAR-4 ovarian): > 100 µM
TGI (SN12C renal): > 100 µM
TGI (UACC-62 melanoma): > 100 µM
TGI (A498 renal): > 100 µM
TGI (M14 melanoma): > 100 µM
TGI (K-562 leukemia): > 100 µM
TGI (SF-295 CNS): > 100 µM
TGI (SW-620 colon): > 100 µM
TGI (OVCAR-8 ovarian): > 100 µM
TGI (CCRF-CEM leukemia): > 100 µM
TGI (A549 NSCLC): > 100 µM
TGI (786-0 renal): > 100 µM
TGI (SR leukemia): > 100 µM
